Where a name gives a salt, the structure may show the parent alone. Read-outs that look alike come from different tables or passages of the source.
Legend:
Hepatitis B virus (HBV) = assay type: cell-based; details: for (Value of the positive control - Measured Value) Value of the positive control × 100% / OD450 of HBeAg: 200 μg/ml; for (Value of the positive control - Measured Value) Value of the positive control × 100%: decrease of HBeAg relative to positive control; for OD450 of HBeAg: supernatant four days after infection, positive control 1.917, negative 0.057
[1] = target: T1, HIV-1 integrase (HIV-1 IN) (Human immunodeficiency virus type 1 group M subtype B, UniProt P04585); assay: Screening for the activity against HIV-1 integrase; assay type: biochemical
T1 construct: a purified HIV-1 integrase was added into each well; purchased
Protocol: Principle of the test: A synthetic oligonucleotide of 30 nt was used as the donor substrate. A synthetic oligonucleotide of 20 nt was used as the target substrate. A 96-well plate was covered by the donor substrate, and a purified HIV-1 integrase was added into each well. ELISA was performed to measure the product of the target DNA chain transfer. A biotin-labeled alkali phosphatase was used to visual the system. OD value was measured by an Enzyme-linked Detector. Add a sample into the reaction system for screening the inhibitor of the enzyme.
1. HIV-1 IN: commercially available.
2. Treatment of the samples: Before use, the sample was dissolved in water or DMSO at a suitable concentration, then serially diluted (5×), four serial dilutions per sample. The stock solutions of two samples were 100-fold diluted with DMSO, then 5-fold diluted, four serial dilutions per sample. Positive control: S-y, provided by Shanghai Organic Chemistry Institute.
3. The donor substrate and target substrate: synthesized by Shanghai Biological Engineering Company (Shanghai Shenggong).
4. Methods: The diluted sample was added into a 96-well plate covered by the donor substrate, and then added into the reaction buffer containing the genetic engineered target enzyme and biotin-target substrate, incubated in the optimal reaction conditions. A biotin-labeled alkali phosphatase was used to visual the system to determine the absorbance at 450 nm (OD450).

MDCK (dog kidney) cells = assay: Toxicity TC50 of the samples in MDCK cells (influenza screening); details: concentration of 50% toxicity
HepG2 cells = assay: Cell status of HepG2 cells treated with sample (HBV screening); assay type: cell-based; details: 200 μg/ml, HepG2, four days after infection
[2] = tested on: MCF-7 human mammary adenocarcinoma; assay: In vitro inhibition rate to tumor cells (MTT), MCF-7; assay type: cell-based; details: for inhibition at 50 µg/mL: Homo sapiens; for inhibition rate, Results (%) MCF-7: 50 μg/ml
[3] = tested on: eight selected tumor cell lines; assay: In vitro anti-tumor IC50, summary over the selected tumor cell lines; assay type: cell-based; details: all eight cell lines
Protocol: (1) Single cell suspension was seeded into 96-well plates (the cells was diluted in the PRMI-1640 minimum medium to 3×10^4 cells/ml, […] diluted cells/well). […] The experiments were performed in quadruplicate.
(2) The medium was removed. Solutions of the anti-tumor agents (50 compounds) were prepared in a freshly prepared medium at serial concentrations. […] of the solution was added into each well. Incubation was continued for 48 hours.
(3) 20 ug of 2 mg/ml MTT was added into each well, and incubated for 4 hours.
(4) The medium was removed from the well. The microplates were swiftly turned down to throw-off the medium. […] of DMSO was added into each well, and vortexed at room temperature for 10 minutes.
(5) OD value (λ=570 nm) was measured with an Enzyme-Linked Detector.
(6) The graph of cell vitality was plotted, and IC50 was calculated.

[4] = tested on: mouse grafted liver cancer H22; assay: Activity against mouse grafted liver cancer H22; assay type: in vivo, Kunming mice; details: for Tumor weight: X ± SD, n = 10; for Average weight (g)-after administration / Average weight(g)-after administration: mouse, in vivo
Protocol: The experiments were performed according to “Guideline for New Drugs (Western medicines) in Pre-clinical Stages” issued by Bureau of Drug Policy & Administration of the People's Republic of China, and the relevant methods in “Methodology of Pharmaceutical Experiments”, Xu Shuyun et al. ed. 120 male Kunming mice weighting […] were allowed to grow 3 days. No abnormality was observed. The mice were routinely inoculated in oxter with mouse sarcoma S-180, and weighted 4 hrs. after inoculation. The mice were randomly divided into 12 groups, 10 mice/group. Group 1 was given 0.3 ml of physiological saline as negative control; Group 2 was given 5-FU as positive control, 0.6 mg/mouse; Group 3 was given hydroxycamptothecine as positive control, 0.02 mg/mouse. Groups 4, 5 and 6 were injected with 10% Compound 6, 0.4 ml/mouse, 0.2 ml/mouse, and 0.1 ml/mouse, respectively. Groups 7, 8 and 9 were injected with 10% Compound 8, 0.4 ml/mouse, 0.2 ml/mouse, and 0.1 ml/mouse, respectively. Groups 10, 11, and 12 were injected with 10% Compound 20, 0.4 ml/mouse, 0.2 ml/mouse, and 0.1 ml/mouse, respectively. The tested compounds were administered on the next day after inoculation, once a day on alternate days, 6 doses totally administered. On the next day after the end dose, the mice were weighed and sacrificed. After the tumor was excised, body weight and tumor weight were recorded. The tumor inhibition rate was calculated based on the following formula: [(average tumor weight of the control groups−average tumor weight of the experimental groups)/average tumor weight of the control groups]×100%. The data was processed statistically. The above experiments were repeated three times.
The experiments were identical with the experiments for activity against mouse grafted sarcoma S-180, except that the cell line inoculated was liver cancer H22. The experiments were repeated three times.

[5] = MCF7, 50 μg/ml, Table 2 (repeated screening), read-out: inhibition rate, Results (%) MCF-7
[6] = H22, first experiment, 10 mg/kg i.v., 6 doses
[7] = H22, first experiment, 20 mg/kg i.v., 6 doses
[8] = H22, first experiment, 40 mg/kg i.v., 6 doses
[9] = H22, second experiment, 10 mg/kg
[10] = H22, second experiment, 20 mg/kg
[11] = H22, second experiment, 40 mg/kg
[12] = H22, third experiment, 10 mg/kg
[13] = H22, third experiment, 20 mg/kg
[14] = H22, third experiment, 40 mg/kg

Compound: C=C1CC2(OC(=O)C(C)C)OC3(CC2C(C)C)C(C)CCC13 (stereo not shown) [Compound 3, Curcumol isobutyrate]
- (Value of the positive control - Measured Value) Value of the positive control × 100% (Hepatitis B virus (HBV)): −36.1502%
- OD450 of HBeAg (Hepatitis B virus (HBV)): 2.61
- IC50 [1]: 117 µM
- TC50 (MDCK (dog kidney) cells; given as dilution of the stock solution): 1/8403 of the stock solution
- Cell status (HepG2 cells): Normal
- inhibition at 50 µg/mL ([2]; MCF7, 50 μg/ml, Table 1, read-out: inhibition rate, Results (%) MCF-7): 32.1%
- inhibition at 50 µg/mL [2, 5]: 22.4%

Compound: CC(C)C1CC23OC1(O)C/C(=C\Nc1ccc(O)cc1)C2CCC3C (stereo not shown) [Compound 5, Curcumol p-hydroxy aniline]
- inhibition at 100 µg/mL ([1]; initial concentration 100 μg/ml, read-out: IC50): < 50%
- inhibitory effect to all the eight selected tumor cell lines (in words) [3]: strong inhibitory effect
- inhibition rate, Results (%) MCF-7 ([2]; Table 3 (repeated screening)): 95.53%
- inhibition at 50 µg/mL [2, 5]: 91%
- inhibition at 50 µg/mL ([2]; MCF7, read-out: inhibition rate, Results (%) MCF-7, 50 μg/ml, Table 1): 90.3%

Compound: CC(C)C1CC23OC1(O)C/C(=C\Nc1ccc(O)cc1)C2CCC3C (stereo not shown) [Compound 6, Curcumol p-hydroxy aniline hydrochloride]
- (Value of the positive control - Measured Value) Value of the positive control × 100% (Hepatitis B virus (HBV)): 93.43%
- OD450 of HBeAg (Hepatitis B virus (HBV)): 0.126
- activity against HBV (in words) (Hepatitis B virus (HBV); primary screening, HBV e antigen, HepG2, 13 samples): had the activity against HBV
- Inhibition rate (%) [4, 6]: 7.0%
- Tumor weight [4, 6]: 2.8 ± 0.37 g
- Inhibition rate (%) [4, 7]: 47.0%
- Tumor weight [4, 7]: 1.60 ± 0.29 g
- Inhibition rate (%) [4, 8]: 61.9%
- Tumor weight [4, 8]: 1.15 ± 0.31 g
- Inhibition rate (%) [4, 9]: 13.9%
- Tumor weight [4, 9]: 2.6 ± 0.37 g
- Inhibition rate (%) [4, 10]: 47.7%
- Tumor weight [4, 10]: 1.58 ± 0.29 g
- Inhibition rate (%) [4, 11]: 60.3%
- Tumor weight [4, 11]: 1.21 ± 0.31 g
- Inhibition rate (%) [4, 12]: 7.3%
- Tumor weight [4, 12]: 2.8 ± 0.37 g
- Inhibition rate (%) [4, 13]: 46.0%
- Tumor weight [4, 13]: 1.63 ± 0.29 g
- Inhibition rate (%) [4, 14]: 56.9%
- Tumor weight [4, 14]: 1.30 ± 0.31 g
- Average weight (g)-after administration ([4]; 10 mg/kg): 21.2 g
- Average weight(g)-after administration ([4]; 10 mg/kg): 21.0 g
- Average weight (g)-after administration ([4]; 20 mg/kg): 20.0 g
- Average weight(g)-after administration ([4]; 20 mg/kg): 22.0 g
- Average weight (g)-after administration ([4]; 40 mg/kg): 21.4 g
- Average weight(g)-after administration ([4]; 40 mg/kg): 22.4 g
- Average weight(g)-after administration ([4]; iv, 10 mg/kg): 22.0 g
- Average weight(g)-after administration ([4]; iv, 20 mg/kg): 22.2 g
- Average weight(g)-after administration ([4]; iv, 40 mg/kg): 22.1 g
- inhibitory effect against mouse grafted liver cancer H22 (in words) ([4]; three different concentrations (40, 20, 10 mg/kg), i.v.): good inhibitory effect
- TC50 (MDCK (dog kidney) cells): 192.45 µg/mL
- inhibitory effect to all the eight selected tumor cell lines (in words) [3]: strong inhibitory effect
- Cell status (HepG2 cells): Normal
- inhibition rate, Results (%) MCF-7 ([2]; Table 1, hydrochloride): 91.89%
- inhibition rate, Results (%) MCF-7 ([2]; Table 2 (repeated screening), hydrochloride): 91.89%
- inhibition at 50 µg/mL ([2]; MCF7, 50 μg/ml, Table 3 (repeated screening), read-out: inhibition rate, Results (%) MCF-7): 94.1%

Source: patent publication US7700584B2 (Hangzhou Minsheng Pharmaceuticals Co., Ltd., priority 2004, dated 2010)
